These are literature values, as cited in US20250122197A1, “PROCESS FOR […] ISOLATING ATROPISOMERS OF 7-CHLORO-6-FLUORO-1-(2-ISOPROPYL-4-METHYLPYRIDIN-3-YL)PYRIDO[2,3-D]PYRIMIDINE-2,4(1H,3H)-DIONE” (AMGEN INC., priority 2020, published 2025).

Data set [1] has as its system phosphorylation of extracellular signal-regulated kinase (ERK). To be noted: preclinical studies, Canon et al. Nature 2019.
The subject of data set [2] is KRAS p.G12C tumors. The settings on record: mice bearing KRAS p.G12C tumors, Canon et al. Nature 2019.

As for `C=CC(=O)N1CCN(c2nc(=O)n(-c3c(C)ccnc3C(C)C)c3nc(-c4c(O)cccc4F)c(F)cc23)[C@@H](C)C1` [AMG 510], the “Inhibition of ERK phosphorylation” value in data set [1] is reported as “inhibited nearly all detectable phosphorylation”. Besides, in data set [2], the Tumor regression result is recorded as “durable complete tumor regression”.
